The values below come from patent US20160199364A1, “SEIZURE TREATMENT COMPOSITIONS AND METHODS” (Creighton University, priority 2015, published 2016).

The test system of data set [1] is spontaneous recurrent seizures in epileptic Kv1.1 knockout (KO) mice. The experiment in a line: Spontaneous recurrent seizures by 24 hr video-EEG (seizure incidence, seizure burden index). In kind it is in vivo, mouse. How it is done: (§1) Dietary and pharmacological treatments. […] For dietary experiments involving Kv1.1WT and Kv1.1KO mice, drinking water contained either 0.0323% DMSO vehicle or GW9662 ([…]) to obtain an average dosage of 1.062±0.038 mg/kg/day (n=18). There was no difference in the average daily water consumption or resulting GW9662 dosage between experimental groups (see FIG. 2H). […] Three hours after the last pioglitazone injection, mice were euthanized and brains processed for western blot, electrophysiology, or mitochondria experiments.
Intracranial electroencephalography electrode implantation and seizure analysis. On P27, mice underwent surgical implantation of electrodes. Mice were maintained under isoflurane anesthesia and normothermic conditions. One ground (1.5 mm anterior lamba, 1.5 mm lateral) and two subdural (1 mm posterior Bregma, 1.5 mm bilateral) intracranial cortical electroencephalographic (iEEG) electrodes were implanted, secured, and attached to a headmount. […] EEG recordings were acquired with a 250 Hz sampling rate and band-pass filtered between 0.5 and 40 Hz. During seizure monitoring, mice were single-housed in hexagon cages. EEG recordings were imported into Spike2 v6-7 software (Cambridge Electronic Design, Cambridge, England) for initial seizure identification using time-frequency analysis. […] Incidence and severity of each seizure was scored for the first 15 minutes of each hour during the time period of highest seizure occurrence for Kv1.1KO mice (00:00-08:00). Seizure severity was scored using a modified Racine scale: 0—normal; 1—myoclonic jerk or “pop;” 2—side-to-side head movement; 3—forelimb/hindlimb clonus, tail extension, a single rearing event; 4—continuous rearing and falling; 5—severe tonic-clonic seizures. To weigh the incidence and severity of seizures, seizure burden index (SBI) scores were calculated using the equation: SBI=[Σ(σiγi)]/ε, where σ indicates the severity; i indicates each stage of seizure (1-5); γ is the incidence; and ε indicates the total number of epochs scored.

The nature of another data set: Body weight. Conditions: pioglitazone 10 mg/kg/day i.p., five days; Kv1.1WT or Kv1.1KO mice. The data set is classed as in vivo, mouse.
Data set [2] concerns hippocampal mossy fiber-CA3 synapse and CA3 network. The experiment in a line: Acute hippocampal slice multielectrode array recordings after in vivo treatment. Further details: species or system mouse. The following applies: Kv1.1KO mice treated in vivo (pioglitazone 10 mg/kg/day i.p. or KD), hippocampal slices. On the procedure:
as §1
Acute hippocampal slice preparation and multielectrode array recordings. […] Spontaneous and evoked extracellular potentials were recorded with Mobius v2 software (Witwerx Inc., Tustin, Calif., USA) and acquired at a 20 kHz sampling rate with a bandwidth of 0.1 Hz-10 kHz. Post-synaptic field potentials and short-term plasticity of the mossy fiber (MF)-CA3 synapse were obtained by successive paired stimulations (50 ms inter-stimulus interval, 50% maximal intensity) of Dentate granule cell mossy fibers located in the hilar region and recorded in CA3 stratum lucidum. Paired pulse facilitation was calculated by dividing the slope (10-90%) of stimulation 2 by the slope of stimulation 1 and presented as the percent above stimulation 1. […]

The subject of data set [3] is mitochondrial respiratory complex I (MRCI). Nature of the data set: Oxygen polarography of isolated cortical mitochondria after in vivo treatment. Further details: species or system mouse. The following applies: Kv1.1KO mice treated in vivo (pioglitazone 10 mg/kg/day i.p. or KD). On the procedure:
as §1
Mitochondrial isolation and oxytherm polarography. Mice were anesthetized with isoflurane and cortical tissue was quickly micro-dissected on ice. Tissue was homogenized in isolation buffer (5×V/V in mM: 215 mannitol, 75 sucrose, 1 EGTA 20 HEPES and 0.1% BSA, pH 7.2 adjusted with KOH) and mitochondria were isolated using differential centrifugation. Isolated mitochondria were resuspended in isolation buffer without EGTA. Protein concentrations were determined with Bradford assay. […] Oxygen polarography was measured using a standard Clark-type electrode (Hanstech Instruments, Ltd., Norfolk, England). […] Only samples with a respiratory control ratio greater than 4 were analyzed. Unbiased assessment of the rate of oxygen consumption was determined using computer-generated line of best-fit algorithm and nmol of oxygen mg^−1 min^−1 was calculated.

Consider `O=C(Nc1ccccc1)c1cc([N+](=O)[O-])ccc1Cl` [GW9662], for which, in data set [1] (GW9662 ~1 mg/kg/day co-administered throughout KD treatment, Kv1.1KO mice), the KD anti-seizure efficacy entry is “prevented”. Also, the “Kv1.1KO seizures (worsening)” value in data set [1] (GW9662 ~1 mg/kg/day in drinking water, Kv1.1KO mice) was “did not worsen”. Besides, in data set [1] (GW9662 ~1 mg/kg/day in drinking water, WT mice), the “induction of spontaneous seizures in WT mice” value is reported as “did not”.
On to `CCc1ccc(CCOc2ccc(CC3SC(=O)NC3=O)cc2)nc1` (stereo not shown) [pioglitazone], for which the body weight result in “Body weight” is given as “did not change”. The “attenuation of HFO (high frequency oscillation) incidence” value in data set [2] (CA3 network) is reported as roughly 60%. In addition, the “increase of mossy fiber paired pulse facilitation” value in data set [2] is on record as roughly 45%. Further, the “improvement of mitochondrial respiration (MRCI State III)” value in data set [3] is roughly 80%.
